In the supplement of paper PMC10331698:
± gives the standard deviation of the averaged measurements.

How the values were obtained:
Experiment in all cases: level (log10 ratio to DMSO vehicle control); higher = higher biomarker level / cell amount than vehicle control
[1] = compound: C=C(C)C(=O)OCC(F)(F)C(F)(F)C(F)(F)F [2,2,3,3,4,4,4-Heptafluorobutyl methacrylate]; settings: in DMSO
Method: (§1)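 BioMAP Diversity Plus panel of 12 human primary cell co-culture systems (3C, 4H, LPS, SAg, BT, BF4T, BE3C, CASM3C, HDF3CGF, KF3CT, MyoF, Mphg). Compounds were added 1 h before stimulation and left for 24 h (MyoF 48 h; BT 72 h for soluble read-outs or 6 d for IgG). Biomarkers were read by ELISA, cytotoxicity by SRB, PBMC viability and proliferation by Alamar Blue. Each well value was divided by the mean of 8 DMSO control wells on the same plate and log10 transformed; duplicate blinded samples were tested at 4 concentrations.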

[2] = compound: C=CC(=O)OCC(F)(F)C(F)(F)C(F)(F)C(F)(F)C(F)(F)C(F)(F)C(F)(F)C(F)F [1H,1H,9H-Perfluorononyl acrylate]; settings: in DMSO
Method: as §1

[3] = compound: C=CC(=O)OCC(F)(F)C(F)(F)C(F)(F)C(F)(F)COC(=O)C=C [1H,1H,6H,6H-Perfluorohexane-1,6-diol diacrylate]; settings: 6700 nM; in DMSO
Method: as §1

[4] = compound: C=CC(=O)OCCC(F)(F)C(F)(F)C(F)(F)C(F)(F)C(F)(F)C(F)(F)C(F)(F)C(F)(F)F [8:2 Fluorotelomer acrylate]; settings: in DMSO
Method: as §1

[5] = compound: FC(F)(F)C(F)(F)C(F)(F)C(F)(F)CCI [1H,1H,2H,2H-Perfluorohexyl iodide]; settings: in DMSO
Method: as §1

[6] = compound: O=C(O)C(F)(F)C(F)(F)C(F)(F)C(F)(F)C(F)(F)C(F)(F)C(F)(F)F [Ammonium perfluorooctanoate]; settings: in DMSO
Method: as §1

[7] = compound: OCCC(F)(F)C(F)(F)C(F)(F)C(F)(F)C(F)(F)C(F)(F)C(F)(F)C(F)(F)F [8:2 Fluorotelomer alcohol]; settings: 6700 nM; in DMSO
Method: as §1

[8] = compound: OCCCC(F)(F)C(F)(F)C(F)(F)C(F)(F)C(F)(F)C(F)(F)C(F)(F)C(F)(F)F [3-(Perfluorooctyl)propanol]; settings: 6700 nM; in DMSO
Method: as §1

HDF3CGF:SRB
level (log10) ([1]; 6700 nM): 0.007 ± 0.02 | level (log10) ([1]; 20000 nM): -0.002 ± 0.0099 | level (log10) ([1]; 60000 nM): 0.017 ± 0.0085 | level (log10) ([2]; 6700 nM): -0.017 ± 0.059 | level (log10) ([2]; 20000 nM): -0.011 ± 0.072 | level (log10) ([2]; 60000 nM): -0.0635 ± 0.079 | level (log10) [3]: -0.291 ± 0.028 | level (log10) ([4]; 6700 nM): -0.02 ± 0.0071 | level (log10) ([4]; 20000 nM): -0.0305 ± 0.037 | level (log10) ([4]; 60000 nM): 0.003 ± 0.0014 | level (log10) ([5]; 6700 nM): 0.0085 ± 0.037 | level (log10) ([5]; 20000 nM): -0.011 ± 0.0014 | level (log10) ([5]; 60000 nM): 0.0105 ± 0.028 | level (log10) ([6]; 6700 nM): 0.057 ± 0.055 | level (log10) ([6]; 20000 nM): 0.078 ± 0.0099 | level (log10) ([6]; 60000 nM): 0.0945 ± 0.047 | level (log10) [7]: -0.0335 ± 0.035 | level (log10) [8]: -0.397 ± 0.28

HDF3CGF:EGFR
level (log10) ([1]; 6700 nM): -0.018 ± 0.09 | level (log10) ([1]; 20000 nM): -0.0115 ± 0.057 | level (log10) ([1]; 60000 nM): -0.064 ± 0.041 | level (log10) ([2]; 6700 nM): -0.019 ± 0.023 | level (log10) ([2]; 20000 nM): 0.017 ± 0.0014 | level (log10) ([2]; 60000 nM): 0.045 ± 0.013 | level (log10) [3]: -0.0155 ± 0.0078 | level (log10) ([4]; 6700 nM): -0.003 ± 0.041 | level (log10) ([4]; 20000 nM): -0.028 ± 0.031 | level (log10) ([4]; 60000 nM): 0.006 ± 0.011 | level (log10) ([5]; 6700 nM): 0.0025 ± 0.026 | level (log10) ([5]; 20000 nM): -0.006 ± 0.038 | level (log10) ([5]; 60000 nM): 0.015 ± 0.047 | level (log10) ([6]; 6700 nM): -0.095 ± 0.14 | level (log10) ([6]; 20000 nM): -0.005 ± 0.05 | level (log10) ([6]; 60000 nM): -0.105 ± 0.087 | level (log10) [7]: 0.037 ± 0.0085 | level (log10) [8]: -0.31 ± 0.071

CASM3C:CCL2/MCP-1
level (log10) ([1]; 6700 nM): 0.005 ± 0.013 | level (log10) ([1]; 20000 nM): 0.0045 ± 0.0035 | level (log10) ([1]; 60000 nM): 0.013 ± 0.0071 | level (log10) ([2]; 6700 nM): -0.0125 ± 0.0035 | level (log10) ([2]; 20000 nM): -0.0095 ± 0.0092 | level (log10) ([2]; 60000 nM): -0.0075 ± 0.018 | level (log10) [3]: -0.0195 ± 0.0064 | level (log10) ([4]; 6700 nM): -0.0085 ± 0.0021 | level (log10) ([4]; 20000 nM): -0.012 ± 0.016 | level (log10) ([4]; 60000 nM): 0.0085 ± 0.032 | level (log10) ([5]; 6700 nM): 0.0045 ± 0.0021 | level (log10) ([5]; 20000 nM): -0.008 ± 0.0028 | level (log10) ([5]; 60000 nM): 0.0235 ± 0.067 | level (log10) ([6]; 6700 nM): 0.008 ± 0.017 | level (log10) ([6]; 20000 nM): -0.004 ± 0.0014 | level (log10) ([6]; 60000 nM): 0.051 ± 0.033 | level (log10) [7]: -0.0125 ± 0.0021 | level (log10) [8]: -0.0175 ± 0.016

HDF3CGF:CXCL11/I-TAC
level (log10) ([1]; 6700 nM): -0.0085 ± 0.023 | level (log10) ([1]; 20000 nM): -0.01 ± 0.034 | level (log10) ([1]; 60000 nM): -0.0405 ± 0.018 | level (log10) ([2]; 6700 nM): -0.014 ± 0.0014 | level (log10) ([2]; 20000 nM): -0.066 ± 0.033 | level (log10) ([2]; 60000 nM): -0.214 ± 0.11 | level (log10) [3]: -0.574 ± 0.078 | level (log10) ([4]; 6700 nM): -0.007 ± 0.0057 | level (log10) ([4]; 20000 nM): -0.0095 ± 0.0021 | level (log10) ([4]; 60000 nM): -0.0105 ± 0.028 | level (log10) ([5]; 6700 nM): 0.006 ± 0.011 | level (log10) ([5]; 20000 nM): -0.0165 ± 0.012 | level (log10) ([5]; 60000 nM): -0.0835 ± 0.00071 | level (log10) ([6]; 6700 nM): 0.014 ± 0.0014 | level (log10) ([6]; 20000 nM): 0.037 ± 0.02 | level (log10) ([6]; 60000 nM): 0.0555 ± 0.033 | level (log10) [7]: -0.04 ± 0.024 | level (log10) [8]: -0.367 ± 0.096

lMphg:CD40
level (log10) ([1]; 6700 nM): 0.0055 ± 0.011 | level (log10) ([1]; 20000 nM): -0.005 ± 0.016 | level (log10) ([1]; 60000 nM): -0.0195 ± 0.0078 | level (log10) ([2]; 6700 nM): -0.0205 ± 0.005 | level (log10) ([2]; 20000 nM): -0.022 ± 0.018 | level (log10) ([2]; 60000 nM): -0.032 ± 0.021 | level (log10) [3]: -0.051 ± 0.024 | level (log10) ([4]; 6700 nM): -0.014 ± 0.025 | level (log10) ([4]; 20000 nM): -0.0065 ± 0.0078 | level (log10) ([4]; 60000 nM): -0.0225 ± 0.021 | level (log10) ([5]; 6700 nM): -0.017 ± 0.014 | level (log10) ([5]; 20000 nM): -0.0245 ± 0.029 | level (log10) ([5]; 60000 nM): -0.018 ± 0.025 | level (log10) ([6]; 6700 nM): 0.0115 ± 0.053 | level (log10) ([6]; 20000 nM): -0.0145 ± 0.0092 | level (log10) ([6]; 60000 nM): -0.0585 ± 0.023 | level (log10) [7]: -0.0275 ± 0.0035 | level (log10) [8]: -0.037 ± 0.018

CASM3C:CXCL8/IL-8
level (log10) ([1]; 6700 nM): 0.0035 ± 0.012 | level (log10) ([1]; 20000 nM): -0.0085 ± 0.032 | level (log10) ([1]; 60000 nM): 0.012 ± 0.024 | level (log10) ([2]; 6700 nM): 0.0175 ± 0.021 | level (log10) ([2]; 20000 nM): 0.025 ± 0.0028 | level (log10) ([2]; 60000 nM): 0.0415 ± 0.03 | level (log10) [3]: -0.015 ± 0.0028 | level (log10) ([4]; 6700 nM): -0.0185 ± 0.012 | level (log10) ([4]; 20000 nM): -0.0165 ± 0.00071 | level (log10) ([4]; 60000 nM): -0.0085 ± 0.00071 | level (log10) ([5]; 6700 nM): 0.0105 ± 0.022 | level (log10) ([5]; 20000 nM): 0.0145 ± 0.028 | level (log10) ([5]; 60000 nM): 0.0255 ± 0.06 | level (log10) ([6]; 6700 nM): 0.005 ± 0.0099 | level (log10) ([6]; 20000 nM): 0.0085 ± 0.013 | level (log10) ([6]; 60000 nM): 0.049 ± 0.033 | level (log10) [7]: -0.006 ± 0.011 | level (log10) [8]: -0.008 ± 0.0099
